Consider 18 molecules from patent US12649751B2 (Arcus Biosciences, Inc., priority 2022, dated 2026).

Structures are written as SMILES. pIC50: −log10 of the molar value. Read-outs that look alike come from different tables or passages of the source.

Assay [1] has as its system p-SLP-76 (Ser376) in Jurkat cells. In words: pSLP76 Cellular Assay (AlphaLISA SureFire Ultra p-SLP-76 (Ser376), anti-CD3 activated Jurkat cells). As to conditions: Homo sapiens; Jurkat cells, anti-CD3 stimulation, pSLP76; read-out: Cellular Potency. It counts as cell-based. The procedure, abridged:
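Read-out is AlphaLISA p-SLP-76 (Ser376) signal at 570 nm in Jurkat lysates, with IC50 fitted by 4-parameter logistic. Cells were starved overnight, exposed 1 h at 37 °C to 22 twofold compound dilutions in HBSS, then activated 45 min with anti-CD3 (0.025 mg/ml stock added).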
For orientation: Bead proximity is the source of the signal in Alpha formats.

A further assay has as its target HPK1 (Homo sapiens, UniProt Q92918). Description: HPK1 Biochemical Assay (ADP-Glo luminescence; low ATP 10 μM or high ATP 200 μM). (ADP-Glo first removes unused ATP, then detects ADP through luciferase.)
Setting [2] is: 2 nM HPK1, 10 μM ATP, read-out: Biochemical Potency (low ATP).
Where [3] appears, read: 5 nM HPK1, 200 μM ATP, read-out: Biochemical Potency (high ATP).

Chain of HPK1 (Q92918 whole entry, species assumed): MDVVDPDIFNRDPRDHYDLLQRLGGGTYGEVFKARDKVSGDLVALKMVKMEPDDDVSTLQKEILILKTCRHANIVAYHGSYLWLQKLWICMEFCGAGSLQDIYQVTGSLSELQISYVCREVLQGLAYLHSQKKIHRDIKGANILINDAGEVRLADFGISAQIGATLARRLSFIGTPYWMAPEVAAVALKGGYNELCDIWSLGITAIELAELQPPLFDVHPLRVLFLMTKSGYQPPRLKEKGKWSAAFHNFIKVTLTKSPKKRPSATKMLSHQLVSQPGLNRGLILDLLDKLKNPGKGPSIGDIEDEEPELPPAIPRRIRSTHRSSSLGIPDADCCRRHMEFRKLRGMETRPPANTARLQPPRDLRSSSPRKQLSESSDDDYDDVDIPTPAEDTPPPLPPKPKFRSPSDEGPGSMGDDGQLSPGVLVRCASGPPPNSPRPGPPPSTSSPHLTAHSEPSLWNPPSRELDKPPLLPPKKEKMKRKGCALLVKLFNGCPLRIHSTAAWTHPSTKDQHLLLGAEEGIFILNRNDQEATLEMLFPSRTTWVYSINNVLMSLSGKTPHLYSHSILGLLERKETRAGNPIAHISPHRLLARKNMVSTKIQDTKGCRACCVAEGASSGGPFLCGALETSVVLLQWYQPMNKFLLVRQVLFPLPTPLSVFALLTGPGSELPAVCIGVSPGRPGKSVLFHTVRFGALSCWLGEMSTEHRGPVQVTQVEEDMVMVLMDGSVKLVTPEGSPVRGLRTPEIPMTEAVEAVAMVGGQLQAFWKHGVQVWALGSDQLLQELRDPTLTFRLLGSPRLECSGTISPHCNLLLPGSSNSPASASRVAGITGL

With `Cc1cc(-c2nc3cc(Nc4cccc(N5C[C@@H]6C[C@H]5CN6C)n4)ncc3s2)ccn1` [Example 96, 6-[(1S,4S)-5-Methyl-2,5-diazabicyclo[2.2.1]heptan-2-yl]-N-[2-(2-methylpyridin-4-yl)-[1,3]thiazolo[5,4-c]pyridin-6-yl]pyridin-2-amine], the pIC50 in assay [1] is 6.00 to 7.00; at HPK1 (setting [2]), over 7.00; at HPK1 (setting [3]), over 7.00.

For the molecule `Cc1cccnc1-c1nc2cc(Nc3cccc(N4CC5CCC4CN5C)n3)ncc2s1` (centres unmarked) [Example 97, 6-{5-Methyl-2,5-diazabicyclo[2.2.2]octan-2-yl}-N-[2-(3-methylpyridin-2-yl)-[1,3]thiazolo[5,4-c]pyridin-6-yl]pyridin-2-amine], the pIC50 is 5.30 to 6.00 in assay [1] and over 7.00 on HPK1 (setting [2]).

As for `Cc1cccnc1-c1nc2cc(Nc3cccc(N4C[C@@H](C)N(C)[C@@H](C)C4)n3)ncc2s1` [Example 100, N-[2-(3-Methylpyridin-2-yl)-[1,3]thiazolo[5,4-c]pyridin-6-yl]-6-[(3R,5S)-3,4,5-trimethylpiperazin-1-yl]pyridin-2-amine], the values for the pIC50 (in assay [1]; on HPK1 (setting [2])) were under 5.30 and over 7.00, respectively.

`Cc1cccnc1-c1nc2cc(Nc3ccc(C)c(N4C[C@@H]5C[C@H]4CN5C)n3)ncc2s1` [Example 101, 5-Methyl-6-[(1S,4S)-5-methyl-2,5-diazabicyclo[2.2.1]heptan-2-yl]-N-[2-(3-methylpyridin-2-yl)-[1,3]thiazolo[5,4-c]pyridin-6-yl]pyridin-2-amine]: the pIC50 is 6.00 to 7.00 in assay [1] and over 7.00 on HPK1 (setting [2]).

For `CN1C[C@@H]2C[C@H]1CN2c1cccc(Nc2cc3nc(-c4nccn4C)sc3cn2)n1` [Example 108, N-[2-(1-Methyl-1H-imidazol-2-yl)-[1,3]thiazolo[5,4-c]pyridin-6-yl]-6-[(1S,4S)-5-methyl-2,5-diazabicyclo[2.2.1]heptan-2-yl]pyridin-2-amine], the pIC50 (in assay [1]; on HPK1 (setting [2])) was over 7.00 in each case.

In the case of `Cc1cccnc1-c1nc2cc(Nc3nc(N4C[C@@H]5C[C@H]4CN5C)ccc3F)ncc2s1` [Example 109, 3-Fluoro-6-[(1S,4S)-5-methyl-2,5-diazabicyclo[2.2.1]heptan-2-yl]-N-[2-(3-methylpyridin-2-yl)-[1,3]thiazolo[5,4-c]pyridin-6-yl]pyridin-2-amine], the pIC50 in assay [1] was 5.30 to 6.00; at HPK1 (setting [2]), over 7.00.

Consider `Cc1cccnc1-c1nc2cc(Nc3ccc(Cl)c(N4C[C@@H]5C[C@H]4CN5C)n3)ncc2s1` [Example 110, 5-Chloro-6-[(1S,4S)-5-methyl-2,5-diazabicyclo[2.2.1]heptan-2-yl]-N-[2-(3-methylpyridin-2-yl)-[1,3]thiazolo[5,4-c]pyridin-6-yl]pyridin-2-amine], for which the figures for the pIC50 (in assay [1]; at HPK1 (setting [2])) were 6.00 to 7.00 and over 7.00, respectively.

As for `Cc1cccnc1-c1nc2cc(Nc3ccc(C)c(N4C[C@@H]5CCN(C)[C@@H]5C4)n3)ncc2s1` [Example 112, 6-[(3aS,6aS)-1-Methyl-octahydropyrrolo[3,4-b]pyrrol-5-yl]-5-methyl-N-[2-(3-methylpyridin-2-yl)-[1,3]thiazolo[5,4-c]pyridin-6-yl]pyridin-2-amine], the pIC50 in assay [1] is under 5.30; at HPK1 (setting [2]) it was over 7.00.

Turning to `Cc1cccnc1-c1nc2cc(Nc3cccc(N4CCN5CCC[C@@H]5C4)n3)ncc2s1` [Example 114, 6-[(8aR)—Octahydropyrrolo[1,2-a]pyrazin-2-yl]-N-[2-(3-methylpyridin-2-yl)-[1,3]thiazolo[5,4-c]pyridin-6-yl]pyridin-2-amine], the values for the pIC50 (in assay [1]; at HPK1 (setting [2])) were under 5.30 and over 7.00, respectively.

Regarding `Cc1cccnc1-c1nc2cc(Nc3cccc(C4CCN(C)CC4)n3)ncc2s1` [Example 115, 6-(1-Methylpiperidin-4-yl)-N-[2-(3-methylpyridin-2-yl)-[1,3]thiazolo[5,4-c]pyridin-6-yl]pyridin-2-amine], the pIC50 was under 5.30 in assay [1] and over 7.00 at HPK1 (setting [2]).

As to `Cc1cccnc1-c1nc2cc(Nc3cccc(N4C[C@@H]5C[C@H]4CN5C(C)C)n3)ncc2s1` [Example 116, N-[2-(3-Methylpyridin-2-yl)-[1,3]thiazolo[5,4-c]pyridin-6-yl]-6-[(1S,4S)-5-(propan-2-yl)-2,5-diazabicyclo[2.2.1]heptan-2-yl]pyridin-2-amine], the pIC50 in assay [1] is 5.30 to 6.00; on HPK1 (setting [2]), over 7.00.

Consider `Cc1cccnc1-c1nc2cc(Nc3cc(F)cc(N4C[C@@H]5C[C@H]4CN5C)n3)ncc2s1` [Example 119, 4-Fluoro-6-[(1S,4S)-5-methyl-2,5-diazabicyclo[2.2.1]heptan-2-yl]-N-[2-(3-methylpyridin-2-yl)-[1,3]thiazolo[5,4-c]pyridin-6-yl]pyridin-2-amine], for which the values for the pIC50 (in assay [1]; on HPK1 (setting [2])) were 6.00 to 7.00 and over 7.00, respectively.

On to `CC(C)(O)c1cc(-c2nc3cc(Nc4ccnc(N5C[C@@H]6C[C@H]5CN6)n4)ncc3s2)ccn1` [Example 120, 2-{4-[6-({2-[(1S,4S)-2,5-Diazabicyclo[2.2.1]heptan-2-yl]pyrimidin-4-yl}amino)-[1,3]thiazolo[5,4-c]pyridin-2-yl]pyridin-2-yl}propan-2-ol], for which the pIC50 in assay [1] is 6.00 to 7.00; at HPK1 (setting [2]) it was over 7.00.

Consider `CN1C[C@@H]2C[C@H]1CN2c1nccc(Nc2cc3nc(-c4cccc(N5CC[C@H](O)C5)c4)sc3cn2)n1` [Example 123, (3S)-1-{3-[6-({2-[(1S,4S)-5-Methyl-2,5-diazabicyclo[2.2.1]heptan-2-yl]pyrimidin-4-yl}amino)-[1,3]thiazolo[5,4-c]pyridin-2-yl]phenyl}pyrrolidin-3-ol], for which the pIC50 in assay [1] was 5.30 to 6.00; at HPK1 (setting [2]), over 7.00; on HPK1 (setting [3]), over 7.00.

As to `CN1C[C@@H]2C[C@H]1CN2c1cccc(Nc2cc3nc(-c4cccc(C(N)=O)c4)sc3cn2)n1` [Example 128, 3-[6-({6-[(1S,4S)-5-Methyl-2,5-diazabicyclo[2.2.1]heptan-2-yl]pyridin-2-yl}amino)-[1,3]thiazolo[5,4-c]pyridin-2-yl]benzamide], the pIC50 in assay [1] is 6.00 to 7.00; at HPK1 (setting [2]), over 7.00.

As to `Cc1ccc(-c2nc3cc(Nc4cccc(N5C[C@@H]6C[C@H]5CN6C)n4)ncc3s2)c(C)n1` [Example 129, N-[2-(2,6-Dimethylpyridin-3-yl)-[1,3]thiazolo[5,4-c]pyridin-6-yl]-6-[(1S,4S)-5-methyl-2,5-diazabicyclo[2.2.1]heptan-2-yl]pyridin-2-amine], the pIC50 in assay [1] is under 5.30; at HPK1 (setting [2]), over 7.00.

Take `CN1C[C@@H]2C[C@H]1CN2c1cccc(Nc2cc3nc(-c4cccc(C(=O)N5CCCC5)c4)sc3cn2)n1` [Example 130, 6-[(1S,4S)-5-Methyl-2,5-diazabicyclo[2.2.1]heptan-2-yl]-N-{2-[3-(pyrrolidine-1-carbonyl)phenyl]-[1,3]thiazolo[5,4-c]pyridin-6-yl}pyridin-2-amine]: the figures for the pIC50 (in assay [1]; on HPK1 (setting [2])) were 6.00 to 7.00 and over 7.00, respectively.

Take `CN1C[C@@H]2C[C@H]1CN2c1cccc(Nc2cc3nc(-c4cncc(S(C)(=O)=O)c4)sc3cn2)n1` [Example 131, N-[2-(5-Methanesulfonylpyridin-3-yl)-[1,3]thiazolo[5,4-c]pyridin-6-yl]-6-[(1S,4S)-5-methyl-2,5-diazabicyclo[2.2.1]heptan-2-yl]pyridin-2-amine]: the pIC50 was 5.30 to 6.00 in assay [1] and over 7.00 at HPK1 (setting [2]).
